Laboratory results published in paper PMC5334615, “Induction of Diverse Bioactive Secondary Metabolites from the Mangrove Endophytic Fungus Trichoderma sp. (Strain 307) by Co-Cultivation with Acinetobacter johnsonii (Strain B2)” (Marine Drugs, 2017).

Tests used:
[1] = test system: rat prolactinoma MMQ cell lines; assay: MTT cytotoxicity assay, MMQ cells; assay type: cell-based; details: MTT method, read-out: Cytotoxicity IC50 against MMQ cell lines
Description: (§1) The cytotoxic activities against rat pituitary adenoma MMQ and GH3 cell lines were evaluated by MTT assay following the previous process. Briefly, MMQ and GH3 cell lines were seeded in 96-well plates (Corning, New York, NY, USA) at a density of 5 × 10^4 cells per well. Then, 10 μL of MTT reagent was added to each well and incubated at 37 °C with 5% CO2 for 4 h. Subsequently, 100 μL of acidified isopropyl alcohol was added. Then the OD value was measured at 450 nm using a microplate reader and the cell proliferation rate relative to the control was calculated. The IC50 was analyzed by SPSS 13.0 (SPSS, Chicago, IL, USA). Rat normal pituitary cells were used as a positive control.

[2] = test system: rat pituitary adenoma GH3 cell lines; assay: MTT cytotoxicity assay, GH3 cells; assay type: cell-based; details: MTT method, read-out: Cytotoxicity IC50 against GH3 cell lines
Description: as §1

[3] = MTT cytotoxicity assay, rat normal pituitary cells; assay type: cell-based; details: rat, rat normal pituitary cells (RPC); MTT method; normal cells used as control; read-out: Cytotoxicity IC50 against rat normal pituitary cells (RPC)
Description: as §1

[4] = test system: rat normal pituitary cells (RPC); assay: MTT cytotoxicity assay, rat normal pituitary cells; assay type: cell-based; details: tumour cell IC50 compared with RPC IC50
Description: as §1

[5] = target: α-glucosidase (Saccharomyces cerevisiae, UniProt P53341); assay type: biochemical
Description: The assay of α-glucosidase inhibitory activity was carried out according to the reported method, with minor modifications. All of the assays were performed under 0.01 M potassium phosphate buffer (pH 7). Enzyme solutions were prepared to give 2.0 Units/mL in 2 mL buffer solution. Test samples were dissolved in dimethyl sulphoxide (DMSO) to give an initial concentration of 4000 μM/L. One-hundred fifty-five microliters of phosphate buffer, 10 μL of test samples, and 10 μL of diluted enzyme solution were mixed in each well of a 96-well microtiter plate. After 20 min incubation at 37 °C, 25 μL of substrate (p-nitrophenyl-α-D-glucopyranoside, 1.5 mg/mL) was added to each well to begin the enzymatic reaction. The reaction was monitored spectrophotometrically by measuring the absorbance at 410 nm for a 1 min interval. […] All measurements were done in triplicate from two independent experiments. The reported IC50 was the average value of two independent experiments.

Chain of α-glucosidase (P53341 whole entry): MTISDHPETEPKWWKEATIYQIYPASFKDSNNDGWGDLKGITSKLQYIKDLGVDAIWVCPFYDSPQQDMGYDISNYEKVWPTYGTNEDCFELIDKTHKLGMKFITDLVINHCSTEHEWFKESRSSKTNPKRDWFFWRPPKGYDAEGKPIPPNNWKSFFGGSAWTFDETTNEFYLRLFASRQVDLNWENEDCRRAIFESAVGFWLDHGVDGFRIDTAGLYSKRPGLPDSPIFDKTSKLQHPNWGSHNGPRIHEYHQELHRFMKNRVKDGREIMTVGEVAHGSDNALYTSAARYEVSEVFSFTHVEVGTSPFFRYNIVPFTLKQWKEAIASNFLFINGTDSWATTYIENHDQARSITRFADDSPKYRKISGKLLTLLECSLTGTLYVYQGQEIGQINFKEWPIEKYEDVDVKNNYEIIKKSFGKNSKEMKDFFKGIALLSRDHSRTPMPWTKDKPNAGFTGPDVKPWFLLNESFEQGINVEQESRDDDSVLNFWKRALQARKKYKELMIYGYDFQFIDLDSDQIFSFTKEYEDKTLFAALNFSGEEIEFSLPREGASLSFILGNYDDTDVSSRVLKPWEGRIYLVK

Structure (SMILES) | IC50 [1] | IC50 [2] | IC50 [3] | Cytotoxicity against GH3/MMQ cells, fold better than against RPC cells [4] | α-Glucosidase inhibitory effect, fold better than acarbose [5]
C[C@H]1CCC(=O)CCCCc2cc(O)cc(O)c2C(=O)O1 [Compound 8, (3S)-6-oxo-de-O-methyllasiodiplodin] | 13.6 µM | 21.4 µM | 143 µM | seven-fold | –
C[C@@H]1CCCCCCCc2cc(O)cc(O)c2C(=O)O1 [Compound 9, (3R)-de-O-methyllasiodiplodin] | 6.58 µM | 6.44 µM | 6.94 µM | – | –
COc1cc(O)cc2c1C(=O)O[C@H](C)CCCCC/C=C/2 [Compound 16, (E)-9-etheno-lasiodiplodin] | – | – | – | – | seven-fold
C[C@@H]1CCCCCCCC(=O)Cc2cc(O)cc(O)c2C(=O)O1 [Compound 17, (3R)-nordinone] | 10.1 µM | 12.3 µM | 100 µM | ten-fold | seven-fold
